These results are taken from patent publication US10001483B2, “Methods for the treatment of Kaposi's sarcoma or KSHV-induced lymphoma using immunomodulatory compounds, and uses of biomarkers” (Celgene Corporation, priority 2015, dated 2018).

The conditions of data set [1]: patients; approved dose 4 mg; cited from earlier work.
In data set [2] the test system is KSHV-infected PEL lines (BC-3, BCBL-1, JSC-1, BC-1). As to the kind of experiment: Cell viability (Trypan Blue or CellTiter-Glo) in KSHV-infected PEL cell lines. The settings on record: among thalidomide, lenalidomide, pomalidomide, FIGS. 2A-2D. Type of data set: cell-based. How it is done:
(§1) In addition, the effect of the immunomodulatory drugs on KSHV down-regulation of MHC-1 during lytic activation was investigated by FACS analysis after pretreating the cells with Immunomodulatory drugs prior to lytic activation with butyrate.
Cell Viability: Cells were plated in triplicate at a density of 30,000-60,000 cells per well in 96-well plates. Cell lines were kept separate on different plates. Cell viability after indicated treatments were assayed by Trypan Blue or by adding the CellTiter-Glo reagent to measure the total ATP in cells cultured with serum-supplemented medium. For the latter, the corresponding luminescence values, correlated to the number of cells, were measured using a luminometer. The values for percentage of living cells were normalized to the control.
(§2) Cell Culture: The PEL lines JSC-1 (John Hopkins University, Baltimore, Md.), dually infected with Epstein-Barr virus (EBV) and HHV-8, and BC-3 (ATCC, Rockville, Md.) and BCBL-1(National Institute of Health AIDS Research and Reagent Program, Rockville, Md.), harboring KSHV only, and CA-46, an uninfected cancerous B-cell line, were grown in RPMI 1640 medium (Invitrogen, Carlsbad, Calif.) supplemented with 15% fetal-bovine serum (FBS) (Thermo Scientific, Rockford, Ill.) and Pen/Strep glutamine at 37° C. with 5% CO2.

The test system of a further data set is MHC-1. Nature of the data set: Butyrate induced (lytic KSHV activation) MHC-1 down-regulation in BCBL-1 cells, FACS and Western blot. It counts as cell-based. As to conditions: pretreatment 24 h before butyrate. The procedure: as §1
Flow Cytometry Analysis and Antibodies: For flow cytometry analysis of MHC-I expression, cells were plated at 400,000 cells/mL and pretreated with immunomodulatory agents as indicated. After twenty-four hours, cells were treated with butyrate at indicated amounts to induce lytic activation and down-regulation of MHC-I. After another twenty-four hours, cells were analyzed on FACS and extracts were prepared as indicated. For flow cytometry analysis, the cells, 1×105 per sample, were incubated with indicated conjugated monoclonal antibodies for 30 min at 4° C. After washing twice with PBS, cells were resuspended in PBS and flow cytometry analysis was performed with a FACSCalibur. FITC-conjugated antibodies to anti-HLA MHC Class I (Sigma-Aldrich) and PE-conjugated antibodies to anti-DR MHC Class II (BioLegend) were used for flow cytometry.
For orientation: A western blot detects proteins with antibodies after separation by electrophoresis.

The next data set concerns IRF4. As to the kind of experiment: Western blot of IRF4 in PEL cell lines. Type of data set: cell-based. The settings on record: BC-3, BCBL-1, JSC-1.
Excerpt: as §1, §2
(§3) Western Blotting: At the end of an incubation period, cells were lysed and nuclear/cytoplasmic extracts were prepared using the NE-PER nuclear extraction kit (Pierce). Samples were subjected to SDS-PAGE (4 to 12% NuPAGE Tris-Bis) (Invitrogen) and transferred to nitrocellulose. The membrane was blocked with 5% w/v nonfat dry milk in 1×TBST (10 mM Tris-Hcl, […], 150 mM NaCl, and 0.05% Tween 20) overnight at 4° C. […]

A further data set has as its system p21. As to the kind of experiment: Western blot of p21 in PEL cell lines. Type of data set: cell-based. The settings on record: 10 ii M for 72 hours; FIGS. 6A-6B. How it is done: as §2
as §3, with “C. Blots were incubated with indicated antibodies such as anti-IRF-7 (Santa Cruz), anti-IRF-4 (Cell Signaling), anti-p21 (Cell Signaling), anti-NF-κB p65 (Cell Signaling), anti-NF-κB phospho-p65 (Cell Signaling), IFN-γRa (Cell Signaling), or anti-CRBN (Sigma-Aldrich), and subjected to the appropriate secondary antibody conjugated to alkaline phosphatase (Promega). Bands were visualized with Western Blue stabilized substrate (Promega).” for “C.”

The nature of data set [3]: Safety and tolerability of pomalidomide in KS patients. Type of data set: in vivo, human. How it is done:
Aspirin at 81 mg daily was administered as thromboprophylaxis. Assessments were performed every 4 weeks for lymphocyte numbers, Kaposi sarcoma associated herpesvirus (KSHV/HHV8) viral load (VL) and HIV VL and at 8 weeks for T cell subsets and activation by immunophenotyping of peripheral blood mononuclear cells (PBMC). KSHV VL in PBMC and HIV VL in plasma were assayed by quantitative PCR; an ultrasensitive single copy assay was used for HIV VL. Changes from baseline were evaluated using the Wilcoxon signed rank test with P<0.005 considered significant given multiple comparisons. Differences in changes between the HIV infected and uninfected groups were evaluated using the Wilcoxon rank sum test. Median time of the patients on therapy 7 cycles (range 2-12).
Subsequent cycles commenced on day 29. In certain cases cycles were commenced when ANC was ≥1000 cells/mm3, hemoglobin≥10 g/dL, platelets≥50,000 cells/mm3 and otherwise held until these thresholds were met. […] HIV-infected patients continued baseline ART without adjustment. Prophylaxis for opportunistic infections including Pneumocystis jiroveci was administered following current guidelines.

The mark [4] stands for this setting: 5 mg per day for 21 days of 28 day cycles.

On to `Nc1cccc2c1C(=O)N(C1CCC(=O)NC1=O)C2=O` (stereo not shown) [pomalidomide, 4-amino-2-(2,6-dioxopiperidin-3-yl)isoindoline-1,3-dione], for which the “Plasma Serum Concentration” value in data set [1] was 300 nM. For the same compound, the “cell viability / PEL proliferation” value in data set [2] is reported as “most effective one at killing KSHV infected cells”. For the same compound, the “down-regulation of MHC Class I expression upon lytic KSHV activation” value is recorded as “inhibits MHC-1 down-regulation” with MHC-1 (FIGS. 7A-7C and FIG. 8); “substantially more effective at preventing the down-regulation” in the data set on MHC-1 (FIGS. 7A-7C and FIG. 8, listed as Pomalidomide). The IRF4 expression level entry with IRF4 (1 μM and 10 μM, FIGS. 4A-4D) is recorded as “downregulated IRF4 in all three PEL lines”; in the data set on IRF4 (indicated concentrations for 72 hours, among three tested compounds, FIGS. 3A-3C), “most effective in downregulating IRF4”. Moreover, in the data set on p21, the p21 levels entry is recorded as “most effective in up-regulating p21”. Further, the “adverse events, severity” value in data set [3] (setting [4]) was “generally mild, self limited, or reversible following therapy”. In data set [3] (setting [4]), the dose limiting events entry is “No dose limiting events”. Besides, the tolerability entry in data set [3] (both cohorts) is “well tolerated”. The “cessation of therapy for adverse effect” value in data set [3] (exacerbation of pre-existing anxiety) is “One subject ceased therapy for adverse effect”. In addition, in data set [3] (generally mild and self-limited, or resolved following cessation of therapy), the common adverse events result was “neutropenia, constipation, anemia not requiring transfusion, fatigue, and rash”. Moreover, the “unplanned hospitalizations, febrile neutropenia, thromboembolic events” value in data set [3] (with aspirin 81 mg daily thromboprophylaxis) is “No unplanned hospitalizations, no febrile neutropenia, and no thromboembolic events”.
